Laboratory results taken from PMC3177598 (Bioorganic & medicinal chemistry letters, 2008).

Tests used:
[1] = system: mAChRs (M1, M3 and M5); conditions: in our hands; ref [8]; cited from earlier work
[2] = target: D2 (Homo sapiens, UniProt P14416); assay: D2 antagonist activity / D2 inhibition; type: cell-based
Chain of D2 (P14416 whole entry): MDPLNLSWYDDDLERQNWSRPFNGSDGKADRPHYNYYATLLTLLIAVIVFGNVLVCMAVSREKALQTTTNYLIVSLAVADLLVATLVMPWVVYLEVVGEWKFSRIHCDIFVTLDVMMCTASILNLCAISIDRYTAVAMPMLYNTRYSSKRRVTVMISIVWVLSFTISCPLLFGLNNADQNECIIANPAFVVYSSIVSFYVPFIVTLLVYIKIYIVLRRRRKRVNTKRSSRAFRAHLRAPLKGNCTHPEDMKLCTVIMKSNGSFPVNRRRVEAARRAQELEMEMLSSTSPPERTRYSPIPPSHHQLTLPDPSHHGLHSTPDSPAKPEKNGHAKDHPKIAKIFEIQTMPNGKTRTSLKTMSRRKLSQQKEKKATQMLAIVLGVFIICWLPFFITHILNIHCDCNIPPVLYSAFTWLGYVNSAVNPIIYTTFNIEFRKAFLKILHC

Structure (SMILES)	mAChR subtypes activated (in words) [1]	D2 inhibition (in words) [2]
CC[C@@H]1SC2(CCN(C)CC2)NC1=O [AF267B]	activates M1, M3 and M5, and is M3 preferring	–
Cc1ccccc1CN1CCC(N2CCC(n3c(=O)[nH]c4cc(F)ccc43)CC2)CC1 [Compound 20b]	–	no significant D2 inhibition
Cc1ccccc1CN1CCC(N2CCC(n3c(=O)[nH]c4ccc(F)cc43)CC2)CC1 [Compound 20c]	–	no significant D2 inhibition
